Measured values taken from paper PMC6874179, “Development of Macrocycle Kinase Inhibitors for ALK2 Using Fibrodysplasia Ossificans Progressiva‐Derived Endothelial Cells” (JBMR Plus, 2019).
pIC50: −log10 of the molar value.

What was measured:
PAK6 = target: T1, PAK6 (Homo sapiens, UniProt Q9NQU5); assay: Proqinase Kinase profiling; assay type: biochemical; details: read-out: % inhibition at 100nM
T1 construct: purchased DiscoverX

SYK = target: T2, SYK (Homo sapiens, UniProt P43405); assay: Proqinase Kinase profiling; assay type: biochemical; details: read-out: % inhibition at 100nM
T2 construct: purchased DiscoverX

BRSK1 = target: T3, BRSK1 (Homo sapiens, UniProt Q8TDC3); assay: Proqinase Kinase profiling; assay type: biochemical; details: read-out: % inhibition at 100nM
T3 construct: purchased DiscoverX

ALK_C1156Y = target: T4, ALK_C1156Y (Homo sapiens, UniProt Q9UM73, C1156Y); assay: Proqinase Kinase profiling; assay type: biochemical; details: read-out: % inhibition at 100nM
T4 construct: purchased DiscoverX

FGFR1 = target: T5, FGFR1 (Homo sapiens, UniProt P11362); assay: Proqinase Kinase profiling; assay type: biochemical; details: read-out: % inhibition at 100nM
T5 construct: purchased DiscoverX

CDK3_cyclinE = target: T6, CDK3_cyclinE (Homo sapiens, UniProt Q00526); assay: Proqinase Kinase profiling; assay type: biochemical; details: read-out: % inhibition at 100nM
T6 construct: purchased DiscoverX

PKN2 = target: T7, PKN2 (Homo sapiens, UniProt Q16513); assay: Proqinase Kinase profiling; assay type: biochemical; details: read-out: % inhibition at 100nM
T7 construct: purchased DiscoverX
T7 sequence (Q16513 whole entry): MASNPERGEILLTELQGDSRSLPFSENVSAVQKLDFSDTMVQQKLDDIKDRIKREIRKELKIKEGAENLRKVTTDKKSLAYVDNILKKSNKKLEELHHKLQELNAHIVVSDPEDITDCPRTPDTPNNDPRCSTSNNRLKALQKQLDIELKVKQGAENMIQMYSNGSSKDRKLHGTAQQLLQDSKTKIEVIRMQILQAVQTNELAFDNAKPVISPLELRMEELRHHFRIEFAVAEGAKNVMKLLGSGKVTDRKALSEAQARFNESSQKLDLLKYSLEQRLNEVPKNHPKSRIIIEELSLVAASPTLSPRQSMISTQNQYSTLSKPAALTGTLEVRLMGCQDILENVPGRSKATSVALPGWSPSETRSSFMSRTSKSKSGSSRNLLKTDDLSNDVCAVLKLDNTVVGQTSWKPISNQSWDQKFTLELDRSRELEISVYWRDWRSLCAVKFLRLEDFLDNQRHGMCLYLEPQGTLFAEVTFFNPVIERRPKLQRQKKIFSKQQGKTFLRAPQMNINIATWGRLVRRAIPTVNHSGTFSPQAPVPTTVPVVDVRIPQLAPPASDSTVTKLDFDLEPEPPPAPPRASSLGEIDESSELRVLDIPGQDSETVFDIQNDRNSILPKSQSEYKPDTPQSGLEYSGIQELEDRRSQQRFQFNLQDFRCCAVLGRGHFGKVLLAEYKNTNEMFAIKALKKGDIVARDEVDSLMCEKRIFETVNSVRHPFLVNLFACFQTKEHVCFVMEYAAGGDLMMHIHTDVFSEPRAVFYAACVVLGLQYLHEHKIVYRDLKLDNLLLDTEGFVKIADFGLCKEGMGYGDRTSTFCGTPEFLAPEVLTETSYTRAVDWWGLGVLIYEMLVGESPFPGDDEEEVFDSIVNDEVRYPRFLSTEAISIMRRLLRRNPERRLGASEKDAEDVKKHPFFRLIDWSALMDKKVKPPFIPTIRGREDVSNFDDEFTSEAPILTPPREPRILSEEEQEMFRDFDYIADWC

BMX = target: T8, BMX (Homo sapiens, UniProt P51813); assay: Proqinase Kinase profiling; assay type: biochemical; details: read-out: % inhibition at 100nM
T8 construct: purchased DiscoverX

DYRK1B = target: T9, DYRK1B (Homo sapiens, UniProt Q9Y463); assay: Proqinase Kinase profiling; assay type: biochemical; details: read-out: % inhibition at 100nM
T9 construct: purchased DiscoverX

ZAK = target: T10, ZAK (Homo sapiens, UniProt Q9NYL2); assay: Proqinase Kinase profiling; assay type: biochemical; details: read-out: % inhibition at 100nM
T10 construct: purchased DiscoverX
T10 sequence (Q9NYL2 whole entry): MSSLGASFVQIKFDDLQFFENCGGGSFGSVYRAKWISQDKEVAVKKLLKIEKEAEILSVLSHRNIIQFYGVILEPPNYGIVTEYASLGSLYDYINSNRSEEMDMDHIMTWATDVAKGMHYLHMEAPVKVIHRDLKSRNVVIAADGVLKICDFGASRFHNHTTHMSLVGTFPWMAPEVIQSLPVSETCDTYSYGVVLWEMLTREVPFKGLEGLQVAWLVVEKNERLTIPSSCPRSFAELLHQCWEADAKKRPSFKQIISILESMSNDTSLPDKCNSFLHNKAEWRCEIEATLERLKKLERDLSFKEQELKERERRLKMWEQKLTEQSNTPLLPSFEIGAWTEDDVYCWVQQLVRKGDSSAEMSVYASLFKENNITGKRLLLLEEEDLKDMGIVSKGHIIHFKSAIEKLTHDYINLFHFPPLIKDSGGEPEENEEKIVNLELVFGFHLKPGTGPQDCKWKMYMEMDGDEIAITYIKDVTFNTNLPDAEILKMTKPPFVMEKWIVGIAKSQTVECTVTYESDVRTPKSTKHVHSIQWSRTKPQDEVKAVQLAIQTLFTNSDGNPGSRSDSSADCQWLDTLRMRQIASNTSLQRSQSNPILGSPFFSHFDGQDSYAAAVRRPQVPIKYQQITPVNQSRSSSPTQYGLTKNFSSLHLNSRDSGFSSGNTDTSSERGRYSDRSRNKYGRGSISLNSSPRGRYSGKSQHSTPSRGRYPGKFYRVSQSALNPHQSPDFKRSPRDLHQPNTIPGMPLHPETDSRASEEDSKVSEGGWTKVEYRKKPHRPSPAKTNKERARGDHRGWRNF

LRRK2_R1441C = target: T11, LRRK2_R1441C (Homo sapiens, UniProt Q5S007, R1441C); assay: Proqinase Kinase profiling; assay type: biochemical; details: read-out: % inhibition at 100nM
T11 construct: purchased DiscoverX

[1] = tested on: TGF-β-induced CAGA-LUC reporter activity; assay: TGF-β CAGA-LUC reporter assay in KS483 cells; assay type: cell-based, mouse; details: TGF-β 5 ng/mL 16 hours, compared with LDN-193189
Procedure: (§1) Compounds were added for 16 hours at 0.5μM before luciferase activity was measured.
(§2) For luciferase reporter assays, cells were seeded in 24-well plates and transfected with DharmaFECT Duo (Fisher Scientific, Landsmeer, The Netherlands), following the recommendations of the manufacturer. 48 hours after transfection the cells were harvested and lysed. […] Each transfection mixture was equalized with empty vector when necessary and every experiment was performed in triplicate.

LRRK2_G2019S = target: T12, LRRK2_G2019S (Homo sapiens, UniProt Q5S007, G2019S); assay: Proqinase Kinase profiling; assay type: biochemical; details: read-out: % inhibition at 100nM
T12 construct: purchased DiscoverX

RET_Y791F = target: T13, RET_Y791F (Homo sapiens, UniProt P07949, Y791F); assay: Proqinase Kinase profiling; assay type: biochemical; details: read-out: % inhibition at 100nM
T13 construct: purchased DiscoverX

STK3 = target: T14, STK3 (Homo sapiens, UniProt Q13188); assay: Proqinase Kinase profiling; assay type: biochemical; details: read-out: % inhibition at 100nM
T14 construct: purchased DiscoverX
T14 sequence (Q13188 whole entry): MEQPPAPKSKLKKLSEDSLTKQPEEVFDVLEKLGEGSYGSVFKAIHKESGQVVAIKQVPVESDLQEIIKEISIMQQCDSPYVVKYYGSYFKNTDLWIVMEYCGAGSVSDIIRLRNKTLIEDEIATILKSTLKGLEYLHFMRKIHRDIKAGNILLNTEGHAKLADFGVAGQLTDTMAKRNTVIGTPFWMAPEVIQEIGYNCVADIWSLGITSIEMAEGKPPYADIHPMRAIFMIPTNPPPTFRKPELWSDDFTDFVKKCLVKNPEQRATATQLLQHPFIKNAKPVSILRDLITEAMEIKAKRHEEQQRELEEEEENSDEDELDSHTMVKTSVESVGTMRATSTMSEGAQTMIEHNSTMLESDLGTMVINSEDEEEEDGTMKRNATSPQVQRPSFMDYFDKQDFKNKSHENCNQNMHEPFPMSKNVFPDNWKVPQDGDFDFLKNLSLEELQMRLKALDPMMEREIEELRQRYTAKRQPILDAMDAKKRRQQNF

MYLK = target: T15, MYLK (Homo sapiens, UniProt Q15746); assay: Proqinase Kinase profiling; assay type: biochemical; details: read-out: % inhibition at 100nM
T15 construct: purchased DiscoverX

MET_Y1230C = target: T16, MET_Y1230C (Homo sapiens, UniProt P08581, Y1230C); assay: Proqinase Kinase profiling; assay type: biochemical; details: read-out: % inhibition at 100nM
T16 construct: purchased DiscoverX

CLK2 = target: T17, CLK2 (Homo sapiens, UniProt P49760); assay: Proqinase Kinase profiling; assay type: biochemical; details: read-out: % inhibition at 100nM
T17 construct: purchased DiscoverX

WNK1 = target: T18, WNK1 (Homo sapiens, UniProt Q9H4A3); assay: Proqinase Kinase profiling; assay type: biochemical; details: read-out: % inhibition at 100nM
T18 construct: purchased DiscoverX

EGFR_T790M = target: T19, EGFR_T790M (Homo sapiens, UniProt P00533, T790M); assay: Proqinase Kinase profiling; assay type: biochemical; details: read-out: % inhibition at 100nM
T19 construct: purchased DiscoverX

TSSK2 = target: T20, TSSK2 (Homo sapiens, UniProt Q96PF2); assay: Proqinase Kinase profiling; assay type: biochemical; details: read-out: % inhibition at 100nM
T20 construct: purchased DiscoverX

TNK2 = target: T21, TNK2 (Homo sapiens, UniProt Q07912); assay: Proqinase Kinase profiling; assay type: biochemical; details: read-out: % inhibition at 100nM
T21 construct: purchased DiscoverX

FGFR3 = target: T22, FGFR3 (Homo sapiens, UniProt P22607); assay: Proqinase Kinase profiling; assay type: biochemical; details: read-out: % inhibition at 100nM
T22 construct: purchased DiscoverX

NEK4 = target: T23, NEK4 (Homo sapiens, UniProt P51957); assay: Proqinase Kinase profiling; assay type: biochemical; details: read-out: % inhibition at 100nM
T23 construct: purchased DiscoverX

NTRK1 = target: T24, NTRK1 (Homo sapiens, UniProt P04629); assay: Proqinase Kinase profiling; assay type: biochemical; details: read-out: % inhibition at 100nM
T24 construct: purchased DiscoverX

MERTK = target: T25, MERTK (Homo sapiens, UniProt Q12866); assay: Proqinase Kinase profiling; assay type: biochemical; details: read-out: % inhibition at 100nM
T25 construct: purchased DiscoverX
T25 sequence (Q12866 21-999): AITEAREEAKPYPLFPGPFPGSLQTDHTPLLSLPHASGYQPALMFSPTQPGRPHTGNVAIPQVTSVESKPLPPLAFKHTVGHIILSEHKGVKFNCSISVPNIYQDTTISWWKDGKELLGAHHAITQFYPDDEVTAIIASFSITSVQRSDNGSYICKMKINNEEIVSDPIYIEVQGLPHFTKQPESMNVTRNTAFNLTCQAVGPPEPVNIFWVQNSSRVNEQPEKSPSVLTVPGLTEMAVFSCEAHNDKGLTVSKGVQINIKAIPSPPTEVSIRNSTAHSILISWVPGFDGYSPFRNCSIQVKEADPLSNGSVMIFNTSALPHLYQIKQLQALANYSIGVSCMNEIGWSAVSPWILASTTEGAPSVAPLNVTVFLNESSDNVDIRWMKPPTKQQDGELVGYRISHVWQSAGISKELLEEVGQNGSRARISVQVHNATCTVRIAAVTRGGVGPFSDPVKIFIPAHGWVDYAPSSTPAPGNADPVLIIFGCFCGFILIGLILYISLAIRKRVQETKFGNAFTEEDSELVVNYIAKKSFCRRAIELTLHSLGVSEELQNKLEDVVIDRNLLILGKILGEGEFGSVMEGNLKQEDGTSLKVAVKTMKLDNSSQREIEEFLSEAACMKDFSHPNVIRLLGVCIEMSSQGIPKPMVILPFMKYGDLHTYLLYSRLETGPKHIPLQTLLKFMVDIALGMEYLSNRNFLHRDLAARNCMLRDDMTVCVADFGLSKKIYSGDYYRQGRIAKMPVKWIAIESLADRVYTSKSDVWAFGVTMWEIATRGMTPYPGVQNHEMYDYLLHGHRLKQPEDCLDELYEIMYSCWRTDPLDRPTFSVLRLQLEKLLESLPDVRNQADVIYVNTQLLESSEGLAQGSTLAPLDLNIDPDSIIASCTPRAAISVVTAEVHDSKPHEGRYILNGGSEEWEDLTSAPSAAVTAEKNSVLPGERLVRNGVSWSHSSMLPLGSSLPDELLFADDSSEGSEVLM

CSNK1E = target: T26, CSNK1E (Homo sapiens, UniProt P49674); assay: Proqinase Kinase profiling; assay type: biochemical; details: read-out: % inhibition at 100nM
T26 construct: purchased DiscoverX
T26 sequence (P49674 whole entry): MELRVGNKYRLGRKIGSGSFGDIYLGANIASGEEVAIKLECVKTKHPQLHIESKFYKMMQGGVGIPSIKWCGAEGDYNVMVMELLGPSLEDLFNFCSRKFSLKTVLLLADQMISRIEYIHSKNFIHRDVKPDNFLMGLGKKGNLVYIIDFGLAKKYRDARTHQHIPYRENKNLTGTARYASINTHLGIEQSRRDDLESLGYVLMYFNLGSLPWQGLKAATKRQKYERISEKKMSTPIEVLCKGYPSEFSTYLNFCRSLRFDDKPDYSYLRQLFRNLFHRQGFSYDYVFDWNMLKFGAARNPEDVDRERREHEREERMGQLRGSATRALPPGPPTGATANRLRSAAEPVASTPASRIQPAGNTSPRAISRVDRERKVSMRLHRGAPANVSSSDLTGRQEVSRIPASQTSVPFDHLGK

PLK2 = target: T27, PLK2 (Homo sapiens, UniProt Q9NYY3); assay: Proqinase Kinase profiling; assay type: biochemical; details: read-out: % inhibition at 100nM
T27 construct: purchased DiscoverX

NEK9 = target: T28, NEK9 (Homo sapiens, UniProt Q8TD19); assay: Proqinase Kinase profiling; assay type: biochemical; details: read-out: % inhibition at 100nM
T28 construct: purchased DiscoverX

WT ALK2 receptor = target: T29, WT ALK2 receptor (Homo sapiens, UniProt Q04771); assay: BRE-LUC reporter assay in C2C12 cells cotransfected with WT ALK2; assay type: cell-based; details: BMP-6 50 ng/mL 16 hours, 30-min preincubation, read-out: ALK2wt BMP-6 IC50
T29 construct: expressed in transfected cells; host or cells: C2C12 murine myofibroblast cells
T29 sequence (Q04771 21-509): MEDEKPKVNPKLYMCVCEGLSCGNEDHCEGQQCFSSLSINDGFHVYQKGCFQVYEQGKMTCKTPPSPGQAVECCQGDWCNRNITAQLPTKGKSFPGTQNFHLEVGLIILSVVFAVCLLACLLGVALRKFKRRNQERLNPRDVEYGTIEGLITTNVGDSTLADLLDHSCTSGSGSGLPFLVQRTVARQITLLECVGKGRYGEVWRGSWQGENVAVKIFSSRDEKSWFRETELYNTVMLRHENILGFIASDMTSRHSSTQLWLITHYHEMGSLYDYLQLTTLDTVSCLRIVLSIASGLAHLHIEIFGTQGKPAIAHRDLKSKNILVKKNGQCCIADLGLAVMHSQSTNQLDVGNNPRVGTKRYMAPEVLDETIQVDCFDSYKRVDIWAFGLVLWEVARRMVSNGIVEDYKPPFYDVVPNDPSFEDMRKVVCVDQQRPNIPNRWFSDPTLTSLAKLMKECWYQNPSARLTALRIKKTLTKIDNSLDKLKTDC
Procedure: as §2

TAOK2 = target: T30, TAOK2 (Homo sapiens, UniProt Q9UL54); assay: Proqinase Kinase profiling; assay type: biochemical; details: read-out: % inhibition at 100nM
T30 construct: purchased DiscoverX

PLK4 = target: T31, PLK4 (Homo sapiens, UniProt O00444); assay: Proqinase Kinase profiling; assay type: biochemical; details: read-out: % inhibition at 100nM
T31 construct: purchased DiscoverX

PLK3 = target: T32, PLK3 (Homo sapiens, UniProt Q9H4B4); assay: Proqinase Kinase profiling; assay type: biochemical; details: read-out: % inhibition at 100nM
T32 construct: purchased DiscoverX

caALK2 = target: T33, caALK2 (Homo sapiens, UniProt Q04771, Q207D); assay: BRE-LUC with constitutive active ALK2 in C2C12 cells; assay type: cell-based; details: compound 0.5μM 16 hours
T33 construct: expressed in transfected cells; host or cells: C2C12 murine myofibroblast cells
T33 sequence (Q04771 21-509 Q207D): as the sequence (Q04771 21-509) above, with Q187D counted along it
Procedure: as §1, §2

MAPK14 = target: T34, MAPK14 (Homo sapiens, UniProt Q16539); assay: Proqinase Kinase profiling; assay type: biochemical; details: read-out: % inhibition at 100nM
T34 construct: purchased DiscoverX

CAMKK2 = target: T35, CAMKK2 (Homo sapiens, UniProt Q96RR4); assay: Proqinase Kinase profiling; assay type: biochemical; details: read-out: % inhibition at 100nM
T35 construct: purchased DiscoverX
T35 sequence (Q96RR4 whole entry): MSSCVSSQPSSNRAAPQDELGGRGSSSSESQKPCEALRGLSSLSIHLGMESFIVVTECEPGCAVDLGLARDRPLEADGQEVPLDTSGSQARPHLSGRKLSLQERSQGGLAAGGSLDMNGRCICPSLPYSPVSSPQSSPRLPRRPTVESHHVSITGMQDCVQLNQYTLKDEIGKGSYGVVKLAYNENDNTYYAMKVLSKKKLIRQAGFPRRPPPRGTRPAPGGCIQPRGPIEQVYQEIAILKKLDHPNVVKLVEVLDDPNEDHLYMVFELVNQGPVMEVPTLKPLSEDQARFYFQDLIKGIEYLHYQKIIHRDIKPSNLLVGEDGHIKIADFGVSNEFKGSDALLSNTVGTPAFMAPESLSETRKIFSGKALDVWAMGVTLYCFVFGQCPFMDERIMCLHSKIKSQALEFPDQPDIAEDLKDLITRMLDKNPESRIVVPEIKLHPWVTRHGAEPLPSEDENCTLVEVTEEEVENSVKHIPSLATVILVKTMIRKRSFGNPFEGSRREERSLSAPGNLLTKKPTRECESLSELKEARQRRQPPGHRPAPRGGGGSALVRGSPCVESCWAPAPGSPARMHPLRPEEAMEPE

AKT2 = target: T36, AKT2 (Homo sapiens, UniProt P31751); assay: Proqinase Kinase profiling; assay type: biochemical; details: read-out: % inhibition at 100nM
T36 construct: purchased DiscoverX

EGFR_L747-S752del_P753S = target: T37, EGFR_L747-S752del_P753S (Homo sapiens, UniProt P00533, DEL747-752/P753S); assay: Proqinase Kinase profiling; assay type: biochemical; details: read-out: % inhibition at 100nM
T37 construct: purchased DiscoverX

WEE1 = target: T38, WEE1 (Homo sapiens, UniProt P30291); assay: Proqinase Kinase profiling; assay type: biochemical; details: read-out: % inhibition at 100nM
T38 construct: purchased DiscoverX

SMILES	inhibition at 0.1 µM (PAK6)	inhibition at 0.1 µM (SYK)	inhibition at 0.1 µM (BRSK1)	inhibition at 0.1 µM (ALK_C1156Y)	inhibition at 0.1 µM (FGFR1)	inhibition at 0.1 µM (CDK3_cyclinE)	inhibition at 0.1 µM (PKN2)	inhibition at 0.1 µM (BMX)	inhibition at 0.1 µM (DYRK1B)	inhibition at 0.1 µM (ZAK)	inhibition at 0.1 µM (LRRK2_R1441C)	Inhibitory effect on TGF-β-induced gene transcription (CAGA-LUC) [1]	inhibition at 0.1 µM (LRRK2_G2019S)	inhibition at 0.1 µM (RET_Y791F)	inhibition at 0.1 µM (STK3)	inhibition at 0.1 µM (MYLK)	inhibition at 0.1 µM (MET_Y1230C)	inhibition at 0.1 µM (CLK2)	inhibition at 0.1 µM (WNK1)	inhibition at 0.1 µM (EGFR_T790M)	further results
Clc1cc2cc(c1)-c1cnn3ccc(nc13)NCCOCCO2 [OD36]	1%	-1%	8%	13%	14%	11%	8%	9%	13%	70%	56%	significantly less inhibitory effect	61%	30%	12%	12%	7%	10%	18%	-14%	inhibition at 0.1 µM (TSSK2): -6%; inhibition at 0.1 µM (TNK2): 17%; inhibition at 0.1 µM (FGFR3): 7%; inhibition at 0.1 µM (NEK4): 2%; inhibition at 0.1 µM (NTRK1): 14%; inhibition at 0.1 µM (MERTK): 15%; inhibition at 0.1 µM (CSNK1E): 6%; inhibition at 0.1 µM (PLK2): 17%; inhibition at 0.1 µM (NEK9): 1%; pIC50 (WT ALK2 receptor): 6.51; inhibition at 0.1 µM (TAOK2): 15%; inhibition at 0.1 µM (PLK4): -1%; inhibition at 0.1 µM (PLK3): -4%; Inhibition of caALK2-driven BRE-LUC activity (caALK2): exclusively inhibited ALK2; inhibition at 0.1 µM (MAPK14): -4%; inhibition at 0.1 µM (CAMKK2): 3%; inhibition at 0.1 µM (AKT2): 2%; inhibition at 0.1 µM (EGFR_L747-S752del_P753S): 10%; inhibition at 0.1 µM (WEE1): 15%
Cc1cc2cc(c1)-c1cnn3ccc(nc13)NCCNC(=O)CCN(C)C2 [OD52]	4%	-2%	-1%	-6%	5%	5%	-3%	-34%	-6%	6%	16%	significantly less inhibitory effect	39%	30%	5%	11%	-13%	1%	-2%	-17%	inhibition at 0.1 µM (TSSK2): 11%; inhibition at 0.1 µM (TNK2): -20%; inhibition at 0.1 µM (FGFR3): -9%; inhibition at 0.1 µM (NEK4): -3%; inhibition at 0.1 µM (NTRK1): 29%; inhibition at 0.1 µM (MERTK): -10%; inhibition at 0.1 µM (CSNK1E): 20%; inhibition at 0.1 µM (PLK2): -4%; inhibition at 0.1 µM (NEK9): -1%; pIC50 (WT ALK2 receptor): 5.80; inhibition at 0.1 µM (TAOK2): 3%; inhibition at 0.1 µM (PLK4): -1%; inhibition at 0.1 µM (PLK3): -8%; Inhibition of caALK2-driven BRE-LUC activity (caALK2): exclusively inhibited ALK2; inhibition at 0.1 µM (MAPK14): 1%; inhibition at 0.1 µM (CAMKK2): 2%; inhibition at 0.1 µM (AKT2): -9%; inhibition at 0.1 µM (EGFR_L747-S752del_P753S): -15%; inhibition at 0.1 µM (WEE1): 3%
